Each structure is given as a SMILES string.

Assay in all cases: NCI-60 one-dose SRB screening
What all share (type): cell-based

One assay relates to 786-0. The conditions noted are these: Homo sapiens, 786-0, Renal Cancer, 10 µM one dose, 48 h, read-out: growth percentage.
Another assay relates to BT-549. The following applies: Homo sapiens, BT-549, Breast Cancer, 10 µM one dose, 48 h, read-out: growth percentage.
The subject of the next assay is HCT-15. The conditions noted are these: Homo sapiens, HCT-15, Colon Cancer, 10 µM one dose, 48 h, read-out: growth percentage.
In a further assay the test system is HL-60(TB). The conditions noted are these: Homo sapiens, Leukemia, 10 µM one dose, 48 h, read-out: growth percentage.
For another assay, the system named is HT29. The conditions noted are these: Homo sapiens, HT-29, HT29, Colon Cancer, 10 µM one dose, 48 h, read-out: growth percentage.
In another assay the test system is KM12. The conditions noted are these: Homo sapiens, KM12, Colon Cancer, 10 µM one dose, 48 h, read-out: growth percentage.
In another assay the test system is M14. The conditions noted are these: Homo sapiens, M14, Melanoma, 10 µM one dose, 48 h, read-out: growth percentage.
Another assay has as its system MOLT-4. The conditions noted are these: Homo sapiens, MOLT-4, Leukemia, 10 µM one dose, 48 h, read-out: growth percentage.
The test system of a further assay is NCI-H226. The conditions noted are these: Homo sapiens, NCI-H226, Non-Small Cell Lung Cancer, 10 µM one dose, 48 h, read-out: growth percentage.
The subject of a further assay is OVCAR-4. The conditions noted are these: Homo sapiens, OVCAR-4, Ovarian Cancer, 10 µM one dose, 48 h, read-out: growth percentage.
A further assay relates to OVCAR-5. The following applies: Homo sapiens, OVCAR-5, Ovarian Cancer, 10 µM one dose, 48 h, read-out: growth percentage.
Another assay concerns OVCAR-8. The conditions noted are these: Homo sapiens, OVCAR-8, Ovarian Cancer, 10 µM one dose, 48 h, read-out: growth percentage.
The next assay has as its system PC-3. The conditions noted are these: Homo sapiens, PC-3, Prostate Cancer, 10 µM one dose, 48 h, read-out: growth percentage.
Another assay concerns SF-268. The following applies: Homo sapiens, SF-268, CNS Cancer, 10 µM one dose, 48 h, read-out: growth percentage.
For another assay, the system named is SF-539. The following applies: Homo sapiens, SF-539, CNS Cancer, 10 µM one dose, 48 h, read-out: growth percentage.
The subject of a further assay is SK-MEL-28. The following applies: Homo sapiens, SK-MEL-28, Melanoma, 10 µM one dose, 48 h, read-out: growth percentage.
In another assay the test system is SK-MEL-2. The conditions noted are these: Homo sapiens, SK-MEL-2, Melanoma, 10 µM one dose, 48 h, read-out: growth percentage.
The subject of a further assay is SN12C. The conditions noted are these: Homo sapiens, Renal Cancer, 10 µM one dose, 48 h, read-out: growth percentage.
The test system of another assay is SNB-19. The following applies: Homo sapiens, SNB-19, CNS Cancer, 10 µM one dose, 48 h, read-out: growth percentage.
The subject of the next assay is SR. The conditions noted are these: Homo sapiens, Leukemia, 10 µM one dose, 48 h, read-out: growth percentage.
A further assay relates to U251. The conditions noted are these: Homo sapiens, U-251, U251, CNS Cancer, 10 µM one dose, 48 h, read-out: growth percentage.
The subject of a further assay is UO-31. The conditions noted are these: Homo sapiens, UO-31, Renal Cancer, 10 µM one dose, 48 h, read-out: growth percentage.

Take `Cc1nn(-c2ccccc2)c2nc(CNc3ccc(NCc4c(-c5ccccc5)no[n+]4[O-])cc3)[nH]c(=O)c12` [14b, 3-(((4-(((3-methyl-4-oxo-1-phenyl-4,5-dihydro-1H-pyrazolo[3,4-d]pyrimidin-6-yl)methyl)amino)phenyl)amino)methyl)-4-phenyl-1,2,5-oxadiazole 2-oxide]: the activity at 10 µM in the assay on 786-0 is 125%; with BT-549 it was 95.9%; with HCT-15, 80.6%; in the assay with HL-60(TB) it was 93.7%; in the assay on HT29 it was 107%; with KM12 it was 94.5%. Further, the activity at 10 µM in the assay on M14 worked out at 106%; in the assay on MOLT-4, 61.5%; in the assay on NCI-H226, 101%; in the assay with OVCAR-4 it was 102%; in the assay with OVCAR-5, 95.4%; in the assay with OVCAR-8, 117%. Besides, the activity at 10 µM was determined as 77.7% with PC-3; 84.9% in the assay on SF-268; 99.4% in the assay with SF-539; 99.2% with SK-MEL-28; 100% in the assay on SK-MEL-2; 89.4% in the assay with SN12C. In addition, the activity at 10 µM is 101% with SNB-19, 73% with SR, 94.6% with U251 and 72.4% with UO-31.
As to `Cc1nn(-c2ccc(Br)cc2)c2nc(CNc3ccc(NCc4c(-c5ccccc5)no[n+]4[O-])cc3)[nH]c(=O)c12` [14c, 3-(((4-(((1-(4-bromophenyl)-3-methyl-4-oxo-4,5-dihydro-1H-pyrazolo[3,4-d]pyrimidin-6-yl)methyl)amino)phenyl)amino)methyl)-4-phenyl-1,2,5-oxadiazole 2-oxide], the activity at 10 µM was determined as 119% with 786-0; 98.1% with BT-549; 97.3% in the assay on HCT-15; 103% in the assay on HL-60(TB); 110% in the assay with HT29; 106% in the assay with KM12. For the same compound, the activity at 10 µM in the assay on M14 worked out at 107%; in the assay with MOLT-4 it was 87.2%; in the assay on NCI-H226, 109%; in the assay on OVCAR-4, 127%; in the assay with OVCAR-5, 110%; with OVCAR-8 it was 112%. In addition, the activity at 10 µM in the assay on PC-3 was determined as 96.6%; in the assay on SF-268, 95.2%; with SF-539, 102%; in the assay with SK-MEL-28, 103%; with SK-MEL-2, 107%; with SN12C, 98.8%. Further, the activity at 10 µM in the assay with SNB-19 is 102%; in the assay with SR it was 95.2%; with U251, 99.1%; in the assay on UO-31, 83.4%.
For the compound `Nc1ccc(NCc2c(-c3ccccc3)no[n+]2[O-])cc1` [compound 11, 3-(((4-aminophenyl)amino)methyl)-4-phenyl-1,2,5-oxadiazole 2-oxide], the activity at 10 µM in the assay with 786-0 amounted to 140%; in the assay on BT-549 it was 103%; in the assay with HCT-15, 104%; in the assay on HL-60(TB), 95.5%; in the assay with HT29, 111%; in the assay on KM12 it was 103%. Besides, the activity at 10 µM with M14 stood at 102%; in the assay with MOLT-4, 91.8%; in the assay on NCI-H226, 114%; with OVCAR-4, 118%; with OVCAR-5, 116%; with OVCAR-8, 131%. Moreover, the activity at 10 µM was 95.1% in the assay on PC-3; 101% with SF-268; 104% in the assay with SF-539; 101% in the assay with SK-MEL-28; 105% in the assay with SK-MEL-2; 109% with SN12C. Further, the activity at 10 µM with SNB-19 amounted to 110%; in the assay with SR, 104%; with U251, 102%; with UO-31, 98.9%.

Values taken from publication PMC8880564, “Design, Synthesis, and Biological Evaluation of a Novel VEGFR-2 Inhibitor Based on a 1,2,5-Oxadiazole-2-Oxide Scaffold with MAPK Signaling Pathway Inhibition” (Pharmaceuticals, 2022).
